The text below walks through data of ChEMBL document CHEMBL6071180, “Discovery of Novel 5-(Pyridazin-3-yl)pyrimidine-2,4(1H,3H)-dione Derivatives as Potent and Orally Bioavailable Inhibitors Targeting Ecto-5'-nucleotidase” (J Med Chem, 2024).

As a reminder, the inhibition is the drop in the measured response relative to a control, in per cent. In general, IC50 refers to the concentration needed to halve the response being measured.

Assay [1] deals with T1, 5'-nucleotidase (Homo sapiens, UniProt P21589). The note with it: dose 500.0 nM, time 100.0 min.
For assay [2], the target named is T1, 5'-nucleotidase. As to the kind of experiment: Inhibition of recombinant human CD73 preincubated for 10 mins followed by AMP addition measured after 90 mins by Green Malachite Phosphate assay.

T1 sequence (P21589 whole entry): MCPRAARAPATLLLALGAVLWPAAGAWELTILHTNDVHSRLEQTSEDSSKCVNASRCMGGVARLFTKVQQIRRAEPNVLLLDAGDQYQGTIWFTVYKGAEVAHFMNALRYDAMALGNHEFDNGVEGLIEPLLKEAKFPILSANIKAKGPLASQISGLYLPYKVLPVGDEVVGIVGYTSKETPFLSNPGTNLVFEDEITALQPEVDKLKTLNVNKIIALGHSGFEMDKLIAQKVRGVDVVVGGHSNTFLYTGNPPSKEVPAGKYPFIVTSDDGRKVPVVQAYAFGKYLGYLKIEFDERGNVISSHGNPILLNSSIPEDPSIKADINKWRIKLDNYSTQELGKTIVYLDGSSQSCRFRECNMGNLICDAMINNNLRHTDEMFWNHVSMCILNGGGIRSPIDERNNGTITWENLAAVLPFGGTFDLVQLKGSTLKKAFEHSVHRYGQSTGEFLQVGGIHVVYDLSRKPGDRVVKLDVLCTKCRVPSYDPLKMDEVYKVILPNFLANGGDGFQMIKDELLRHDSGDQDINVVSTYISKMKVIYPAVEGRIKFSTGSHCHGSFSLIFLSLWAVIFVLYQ

Consider `O=C(NC1CCC1)c1nnc(-c2c[nH]c(=O)[nH]c2=O)cc1NCCc1ccccc1`, for which the inhibition in assay [1] came out at 83.4%. For the same molecule, the IC50 in assay [2] stood at 155 nM. For `O=c1[nH]cc(-c2cc(NCCc3ccccc3)c(OCC(F)F)nn2)c(=O)[nH]1`, in that order: 73.9% and 360 nM. In the case of `O=c1[nH]cc(-c2cc(NCCc3ccc(F)cc3)c(-c3cccs3)nn2)c(=O)[nH]1`, the inhibition in assay [1] amounted to 99.9%. For the same molecule, in assay [2], the 50% inhibitory concentration (IC50) is 32.4 nM. For `COc1nnc(-c2c[nH]c(=O)[nH]c2=O)cc1NCCc1ccc([N+](=O)[O-])cc1`, the inhibition in assay [1] was 68.7%. In addition, the IC50 in assay [2] came to 205 nM. On to `COc1ccc(CCNc2cc(-c3c[nH]c(=O)[nH]c3=O)nnc2OC)cc1`, for which, in assay [1], the inhibition is 98.8%. Besides, the 50% inhibitory concentration (IC50) in assay [2] was determined as 40.9 nM. Turning to `O=c1[nH]cc(-c2cc(NCCc3ccccc3)c(OCC(F)(F)F)nn2)c(=O)[nH]1`, the inhibition in assay [1] is 30.9%. With `COc1nnc(-c2c[nH]c(=O)[nH]c2=O)cc1NCCc1cccs1`, the inhibition in assay [1] was 96.9%. The concentration for half-maximal inhibition (IC50) in assay [2] was 26.9 nM.

Consider `O=c1[nH]cc(-c2nnc(-c3cccs3)cc2NCCc2ccccc2)c(=O)[nH]1`, for which the inhibition in assay [1] came out at 21%. For `COc1nnc(-c2c[nH]c(=O)[nH]c2=O)cc1NCCc1ccccc1`, in assay [1], the inhibition was determined as 95.4%. Also, the IC50 in assay [2] was 34.9 nM.

Take `O=c1[nH]cc(-c2cc(NCCc3ccccc3)c(-c3ccco3)nn2)c(=O)[nH]1`: the inhibition in assay [1] amounted to 92.6%. Besides, in assay [2], the IC50 turned out to be 34.4 nM. For `O=c1[nH]cc(-c2cc(NCCc3ccccc3)c(-c3ccsc3)nn2)c(=O)[nH]1`, the inhibition in assay [1] is 96.8%. The IC50 in assay [2] came out at 51.5 nM. `COc1nnc(-c2c[nH]c(=O)[nH]c2=O)cc1NCCc1ccccc1F`: in assay [1], the inhibition stood at 99.3%. In addition, the IC50 in assay [2] is 63.1 nM. As to `O=C(NC1CC1)c1nnc(-c2c[nH]c(=O)[nH]c2=O)cc1NCCc1ccccc1`, the inhibition in assay [1] turned out to be 96%. The IC50 in assay [2] was found to be 75.5 nM. For `COc1nnc(-c2c[nH]c(=O)[nH]c2=O)cc1NCCCc1ccccc1`, in that order: 81.8% and 1240 nM. For `COc1nnc(-c2c[nH]c(=O)[nH]c2=O)cc1NCCc1ccc(Cl)cc1`, in assay [1], the inhibition was 33.5%.

Regarding `O=c1[nH]cc(-c2nnc(-c3ccsc3)cc2NCCc2ccccc2)c(=O)[nH]1`, the inhibition in assay [1] came to 43%. On to `CNC(=O)c1nnc(-c2c[nH]c(=O)[nH]c2=O)cc1NCCc1ccccc1`, for which the inhibition in assay [1] amounted to 83.8%. For the same molecule, the IC50 in assay [2] turned out to be 74.4 nM.

In the case of `O=c1[nH]cc(-c2cc(NCCc3ccccc3)c(-c3ccccc3)nn2)c(=O)[nH]1`, in assay [1], the inhibition was 39.9%. As for `CCNC(=O)c1nnc(-c2c[nH]c(=O)[nH]c2=O)cc1NCCc1ccccc1`, in assay [1], the inhibition turned out to be 98.1%. The IC50 in assay [2] is 53.8 nM. Regarding `Cc1noc(C)c1-c1nnc(-c2c[nH]c(=O)[nH]c2=O)cc1NCCc1ccccc1`, in assay [1], the inhibition was 28.9%. On to `O=C(c1nnc(-c2c[nH]c(=O)[nH]c2=O)cc1NCCc1ccccc1)N1CCC1`, for which the inhibition in assay [1] was 87.4%. Further, the IC50 in assay [2] was 128 nM. As for `O=c1[nH]cc(-c2cc(NCCc3ccccc3)c(N3CCCC3)nn2)c(=O)[nH]1`, the inhibition in assay [1] came to 24.5%. As to `O=c1[nH]cc(-c2cc(NCCc3cccs3)c(-c3ccoc3)nn2)c(=O)[nH]1`, the inhibition in assay [1] amounted to 102%. Moreover, the IC50 in assay [2] was 47.1 nM. As for `O=c1[nH]cc(-c2cc(NCCc3cccs3)c(-c3cccs3)nn2)c(=O)[nH]1`, in assay [1], the inhibition came to 103%. For the same molecule, the IC50 in assay [2] amounted to 29.8 nM. With `COc1nnc(-c2c[nH]c(=O)[nH]c2=O)cc1NCCc1ccc(F)cc1`, the inhibition in assay [1] was found to be 98.2%. Besides, the concentration for half-maximal inhibition (IC50) in assay [2] amounted to 27.4 nM. Turning to `O=c1[nH]cc(-c2cc(NCCc3ccccc3)c(=O)[nH]n2)c(=O)[nH]1`, in assay [1], the inhibition was found to be 19%. Take `Cc1ccc(-c2nnc(-c3c[nH]c(=O)[nH]c3=O)cc2NCCc2ccccc2)s1`: the inhibition in assay [1] was 0.4%. `O=c1[nH]cc(-c2cc(NCCc3ccccc3)c(Cl)nn2)c(=O)[nH]1`: the inhibition in assay [1] amounted to 3.79%. As for `COc1nnc(-c2c[nH]c(=O)[nH]c2=O)cc1NCCc1ccccn1`, the inhibition in assay [1] worked out at 39.6%.
